Some test systems named below: 786-0 renal; ACHN renal; HOP-92 NSCLC; K-562 leukemia; KM12 colon; MALME-3M melanoma; MDA-N; OVCAR-4 ovarian; SK-MEL-2 melanoma; SK-MEL-28 melanoma; SN12C renal.
Common to all, as to experiment: NCI anticancer screen, dose series, 48 h

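Five compound concentrations were applied to cells in 96-well plates for 48 hours; endpoints were derived by simple linear interpolation of the resulting dose-response curve. Definition used: TGI = concentration required for complete inhibition of growth.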

Consider eight molecules from PubChem BioAssay (NCI).

On to `CCCC(CC)c1c(O)c(O)c(C(CC)CCC)c(C(CC)CCC)c1C(CC)CCC` (stereo not drawn), for which the TGI in the assay with 786-0 renal, in the assay on ACHN renal, in the assay with HOP-92 NSCLC, in the assay with K-562 leukemia, in the assay on KM12 colon and in the assay on MALME-3M melanoma was > 10 µM in each case. The TGI in the assay with MDA-N, in the assay on OVCAR-4 ovarian, with SK-MEL-2 melanoma, in the assay with SK-MEL-28 melanoma and in the assay on SN12C renal was > 10 µM each time.

For `COC(=O)c1ccc(CCc2cc(O)ccc2O)cc1`, the TGI in the assay with 786-0 renal was 18.4 µM; with ACHN renal it was 37.9 µM; in the assay on HOP-92 NSCLC, 26.4 µM; in the assay with K-562 leukemia, > 31.6 µM; with KM12 colon it was 27.5 µM; in the assay with MALME-3M melanoma, 22.5 µM. Also, the TGI with MDA-N was 20.5 µM; in the assay on OVCAR-4 ovarian it was 24.4 µM; with SK-MEL-2 melanoma, 55.6 µM; with SK-MEL-28 melanoma, 42.2 µM; in the assay on SN12C renal, 29.3 µM.

`NCCNCCCCCCNC(=O)c1cccc2cc3ccccc3nc12`: the TGI was 2.88 µM in the assay on 786-0 renal; 5.98 µM in the assay with ACHN renal; 9.28 µM in the assay with HOP-92 NSCLC; 6.77 µM in the assay with K-562 leukemia; 4.93 µM in the assay with KM12 colon; 7.92 µM in the assay on MALME-3M melanoma. For the same molecule, the TGI in the assay on MDA-N was 7.13 µM; with OVCAR-4 ovarian, 4.7 µM; in the assay on SK-MEL-2 melanoma, 10.2 µM; in the assay on SK-MEL-28 melanoma it was 12.3 µM; with SN12C renal, 7.8 µM.

`Cc1cc(Nc2ccc(N=Nc3ccc(O)c4ncccc34)cc2)nc(C)n1`: the TGI with 786-0 renal was 54.2 µM; in the assay on ACHN renal, > 77.9 µM; in the assay on HOP-92 NSCLC, 46.7 µM; in the assay on K-562 leukemia, 39.1 µM; in the assay on KM12 colon, 33.3 µM; with MALME-3M melanoma it was 44.6 µM. The TGI was 42.8 µM with MDA-N; 71.7 µM with OVCAR-4 ovarian; 34.4 µM in the assay on SK-MEL-2 melanoma; > 68.7 µM in the assay with SK-MEL-28 melanoma; > 88.2 µM with SN12C renal.

In the case of `COc1ccc(/C=C2\CC3C4CC=C5C[C@@H](O)CC[C@]5(C)C4CC[C@]3(C)\C2=N\O)cc1OC` (stereo partly drawn), the TGI in the assay with 786-0 renal was > 100 µM; in the assay with ACHN renal, 36.9 µM; with HOP-92 NSCLC it was > 100 µM; in the assay with K-562 leukemia, > 100 µM; with KM12 colon, > 100 µM; in the assay on MALME-3M melanoma, > 100 µM. The TGI in the assay on MDA-N is > 100 µM; in the assay on OVCAR-4 ovarian, > 100 µM; in the assay on SK-MEL-2 melanoma, 42.3 µM; with SK-MEL-28 melanoma, > 100 µM; in the assay with SN12C renal, > 100 µM.

As for `Cc1cc(NS(=O)(=O)c2ccc(NC(=O)c3cccc4c(NNc5ccc(S(=O)(=O)N=C(N)N)cc5)c5ccccc5nc34)cc2)no1`, the TGI in the assay on 786-0 renal is > 100 µM; in the assay on ACHN renal, > 100 µM; with HOP-92 NSCLC, 92.7 µM; with K-562 leukemia it was > 100 µM; in the assay on KM12 colon it was > 100 µM; in the assay on MALME-3M melanoma it was > 100 µM. Moreover, the TGI in the assay with MDA-N is > 100 µM; in the assay with OVCAR-4 ovarian, > 100 µM; with SK-MEL-2 melanoma, 64.2 µM; in the assay with SK-MEL-28 melanoma, > 100 µM; with SN12C renal it was > 100 µM.

For the molecule `O=c1[nH]c2cc3cccnc3c(Cl)c2nc1C(F)(F)F`, the TGI in the assay on 786-0 renal was > 100 µM; with ACHN renal it was > 100 µM; with HOP-92 NSCLC it was 60.5 µM; with K-562 leukemia it was > 100 µM; in the assay on KM12 colon, 63.7 µM; in the assay on MALME-3M melanoma, > 100 µM. Besides, the TGI was > 100 µM with MDA-N; 83 µM in the assay on OVCAR-4 ovarian; > 100 µM in the assay on SK-MEL-2 melanoma; > 100 µM in the assay on SK-MEL-28 melanoma; > 100 µM in the assay with SN12C renal.

Turning to `COC(=O)/C=C\C(C#N)(C#N)N=Cc1ccc(C)s1`, the TGI in the assay on 786-0 renal was 3.2 µM; in the assay on ACHN renal, 3.66 µM; in the assay with HOP-92 NSCLC it was 3.24 µM; in the assay on K-562 leukemia, > 100 µM; in the assay with KM12 colon, 31.8 µM; with MALME-3M melanoma, 3.09 µM. Further, the TGI in the assay on MDA-N came out at 6.94 µM; in the assay on OVCAR-4 ovarian it was 13.1 µM; in the assay on SK-MEL-2 melanoma, 20.5 µM; in the assay on SK-MEL-28 melanoma, 9.64 µM; with SN12C renal, 5.91 µM.
